Data on one compound can be found in patent US20030104079A1, “Skin tissue regeneration promoters comprising ginsenoside Rb1” (Japan Science and Technology Corporation, Japan, priority 2000, published 2003).

“Also recorded” adds a separate entry of the source.

One assay relates to open wound of rat skin. In words: Open wound healing by external or topical application to skin (propet ointment). It counts as in vivo, rats. The source says: For that purpose, for example, by using Wistar male rats (body weight about 300 g), the punch biopsies with diameter 6 mm were made in the dorsal region of animals after shaving under inhalation anesthesia to prepare 3 regions of open wound. Among them, 0.1 g of ophthalmic white Vaseline (Propet) containing 0.01% by weight or 0.001% by weight of ginsenoside Rb1 was spread once for every day in two regions, and in the remaining open wound, the equal amount of ophthalmic white Vaseline (propet) was spread. Nine days after preparing open wound, the skin including wound regions was photographed. Further, we have examined the effects of external or topical cutaneous spread of 0.0001% by weight, 0.00001% by weight or 0.000001% by weight of ginsenoside Rb1 by the same procedure. Experimental animals were euthanized by anesthetia immediately before photographing, then wound regions were dissected out after photographing or after dissecting out wound regions, photographing was performed. Thereafter, the wound region tissues were stored in the fixative. FIG. 5 and FIG. 6 are photographs in place of drawings.
The punch biopsy with diameter 6 mm was performed in the dorsal 6 regions of each animal under inhalation anesthesia to prepare open wound. Thereafter, 0.1 g of propet (ophthalmic white vaseline) containing ginsenoside Rb1 at the concentrations of 0.0001% by weight (10^−4% by weight), 0.00001% by weight (10^−5% by weight), 0.000001% by weight (10^−6% by weight), 0.0000001% by weight (10^−7% by weight) and 0.00000001% by weight (10^−8% by weight), respectively, was applied externally, once a day, for 9 days on each open wound. The equal amount of propet alone was applied externally or topically in the control animals. Then, immediately after euthanasia by anesthetization, the skin containing the open wound was dissected out and photographed. The collected skin tissue was preserved in a fixative. FIG. 12 is a photograph in place of drawing.
In each case, there are three wounds on the left side and three wounds on the right side, totally 6 marks of open wounds.
In the experimental cases hereinbefore explained, an area of open wound (flair region) applied externally only with propet is set as a denominator and an area of open wound administered externally with ginsenoside Rb1 at concentrations from 10^−4% by weight to 10^−8% by weight is set as a numerator, and ratio thereof is calculated. In FIG. 13, n=3 and single asterisk (*) indicates significant difference, P<0.05, and two asterisks (**) indicate significant difference, P<0.01. Statistical test was performed according to Scheffe's post hoc test.
Details of dihydroginsenoside Rb1 is described in the specification of PCT/JP00/04102 (Brain cell or nerve cell protecting agents comprising ginseng). The punch biopsy with diameter 6 mm was performed at 5 places in the dorsal region of rats (n=4) under inhalation anesthesia to prepare open wound. Thereafter, 0.1 g of propet containing dihydroginsenoside Rb1 at concentrations of 0.0001% by weight (10^−4% by weight), 0.00001% by weight (10^−5% by weight), 0.000001% by weight (10^−6% by weight) and 0.0000001% by weight (10^−7% by weight), respectively, was applied topically or externally, once a day, for 9 days onto each open wound. The equal amount of propet alone was applied externally or topically in the control animals. Then, immediately after euthanasia by anesthetization, the skin containing the open wound was dissected out and photographed. The collected skin tissue was preserved in a fixative. FIG. 14 is a photograph in place of drawing. In FIG. 14, four cases are shown, and from the upper column, the first case, the second case, the third case and the fourth case are shown.

Assay [1] has as its system skin epidermal keratinocytes or hornified cells. Conditions: extracellular fluid concentration 100 μg/ml; cited from earlier work.

Take `CC(C)=CCC[C@](C)(O[C@@H]1O[C@H](CO[C@@H]2O[C@H](CO)[C@@H](O)[C@H](O)[C@H]2O)[C@@H](O)[C@H](O)[C@H]1O)[C@H]1CC[C@]2(C)[C@@H]1[C@H](O)C[C@@H]1[C@@]3(C)CC[C@H](O[C@@H]4O[C@H](CO)[C@@H](O)[C@H](O)[C@H]4O[C@@H]4O[C@H](CO)[C@@H](O)[C@H](O)[C@H]4O)C(C)(C)[C@@H]3CC[C@]12C` [ginsenoside Rb1]: the “open wound reduction (FIG. 13)” value with open wound of rat skin (0.0000001% by weight (10^−7% by weight) or less, i.e. 1 ng/g or less) was “reduced significantly the open wound”. Besides, the “ratio of open wound area to propet alone (FIG. 13)” value in the assay on open wound of rat skin (10^−4% to 10^−8% by weight, n=3, Scheffe's post hoc test) is given as “wound healing was significantly promoted”. Moreover, the “area of the open wound relative to control” value in the assay on open wound of rat skin (concentrations around 10^−8% by weight) is on record as “about ¼”. The “growing hair in regions of wound healing (FIG. 12)” value with open wound of rat skin (external administration of the low concentrations of ginsenoside Rb1) is “growing hair was obviously observed”. Moreover, the “hair restoration or hair growth from regenerated open wound” value in the assay on open wound of rat skin (extracutaneous administration of 0.000001% by weight) is recorded as “obvious hair restoration or hair growth”. In addition, the “area of open wound region relative to control” value in the assay with open wound of rat skin (ginsenoside Rb1 at 0.0001%, 0.00001%, 0.000001%, 0.0000001% or 0.00000001% by weight) is on record as “½-¼”. The “volume of the open wound relative to control” value with open wound of rat skin (low concentrations, worked out from the area reduction) was “about ⅛”. Besides, the “effectiveness on open wound (FIG. 6)” value with open wound of rat skin (propet containing 0.00001% or 0.000001% by weight, compared with 0.0001% by weight) is given as “superior effectiveness as compared with propet containing 0.0001% by weight”. In addition, the “open wound area vs propet alone (FIG. 5)” value with open wound of rat skin (propet containing 0.001% by weight, 0.1 g once every day, day 9) is reported as “slightly reduced”. Also, the “open wound vs propet alone control (FIG. 5)” value in the assay on open wound of rat skin (propet containing 0.01% by weight, 0.1 g once every day, day 9) was “trivial; also recorded: no difference”. For the same compound, in the assay with open wound of rat skin (propet containing 10^−6% to 10^−8% by weight (10 ng/g to 100 pg/g), once a day for 9 days), the “wound healing vs propet alone (FIG. 12)” value is “wound healing was obviously promoted”. The “division and proliferation of skin epidermal keratinocytes or hornified cells” value in assay [1] is “can promote division and proliferation of skin epidermal keratinocytes or hornified cells”.
